{
  "source": "paper PMC8272913",
  "about": "(ACS chemical neuroscience, 2019)",
  "key": {"rat SERT (rSERT)": {"molecular_target": "rat SERT (rSERT) (Rattus norvegicus, UniProt P31652)", "sequence (P31652 whole entry)": "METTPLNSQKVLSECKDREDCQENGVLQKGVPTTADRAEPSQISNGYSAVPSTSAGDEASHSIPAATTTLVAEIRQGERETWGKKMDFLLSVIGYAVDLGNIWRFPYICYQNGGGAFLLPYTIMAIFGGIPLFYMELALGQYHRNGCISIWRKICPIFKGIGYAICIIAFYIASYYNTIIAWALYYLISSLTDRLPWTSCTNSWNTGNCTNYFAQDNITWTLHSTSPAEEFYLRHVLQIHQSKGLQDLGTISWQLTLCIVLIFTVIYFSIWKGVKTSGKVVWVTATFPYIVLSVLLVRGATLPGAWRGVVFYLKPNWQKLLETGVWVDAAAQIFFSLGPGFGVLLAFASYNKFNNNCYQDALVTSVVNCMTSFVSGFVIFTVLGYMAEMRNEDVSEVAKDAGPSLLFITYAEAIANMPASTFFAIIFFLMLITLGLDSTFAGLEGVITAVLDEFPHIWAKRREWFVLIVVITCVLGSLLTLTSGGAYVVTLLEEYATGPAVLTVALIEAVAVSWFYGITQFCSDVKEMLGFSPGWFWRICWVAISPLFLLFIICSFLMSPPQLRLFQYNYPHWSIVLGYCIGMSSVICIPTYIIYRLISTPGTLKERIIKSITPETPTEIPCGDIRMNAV", "test": "Inhibition of [3H]citalopram binding to rSERT from rat brain tissue", "settings": "for Ki: read-out: Ki, binding affinity for rSERT; for fold decrease in rSERT binding affinity relative to paroxetine: vs paroxetine"}, "hSERT-A169D [1]": {"molecular_target": "T1, hSERT-A169D (Homo sapiens, UniProt P31645, A169D)", "assay_type": "binding"}, "hSERT": {"molecular_target": "hSERT (Homo sapiens, UniProt P31645)", "assay_type": "binding"}, "hSERT-A169D [2]": {"molecular_target": "T1, hSERT-A169D", "assay_type": "cell-based"}, "hSERT WT [3]": {"molecular_target": "T2, hSERT WT (Homo sapiens, UniProt P31645)", "settings": "read-out: Ki (nM) RTI-55 Binding WT"}, "hSERT WT [4]": {"molecular_target": "T2, hSERT WT", "assay_type": "cell-based", "settings": "read-out: Ki (nM) 5-HT Transport WT"}},
  "note": "Read-outs that look alike come from different tables or passages of the source.",
  "data": [
    {"smiles": "c1ccc([C@@H]2CCNC[C@H]2COc2ccc3c(c2)OCO3)cc1", "note": "[compound 15, desfluoroparoxetine]", "values": [
      {"measurement": "Ki", "setting": "rat SERT (rSERT)", "result": 0.557, "unit": "nM"}
    ]},
    {"smiles": "O=C(Cc1ccc(Br)cc1)N1CCC(c2ccc(F)cc2)C(COc2ccc3c(c2)OCO3)C1", "note": "(centres unmarked) [compound 6]", "values": [
      {"measurement": "Ki", "setting": "rat SERT (rSERT)", "result": 3820, "unit": "nM"}
    ]},
    {"smiles": "CCCCCCN1CCC(c2ccc(F)cc2)C(COc2ccc3c(c2)OCO3)C1", "note": "(centres unmarked) [compound 1]", "values": [
      {"measurement": "Ki", "setting": "rat SERT (rSERT)", "result": 395, "unit": "nM"}
    ]},
    {"smiles": "Brc1ccc([C@@H]2CCNC[C@H]2COc2ccc3c(c2)OCO3)cc1", "note": "[compound 13, 4-bromoparoxetine]", "values": [
      {"measurement": "RTI-55 Binding Sensitivity toward the A169D mutation", "setting": "hSERT-A169D [1]; A169D versus WT", "result": 1.6},
      {"measurement": "Ki", "setting": "hSERT-A169D [1]; read-out: Ki (nM) RTI-55 Binding A169D, hSERT A169D", "result": "1.72 ± 0.39", "unit": "nM"},
      {"measurement": "fold reduction in binding affinity as compared to paroxetine", "setting": "hSERT", "result": "~ 4 fold"},
      {"measurement": "Ki", "setting": "hSERT; read-out: Ki, binding affinity", "result": "0.32 ± 0.028", "unit": "nM"},
      {"measurement": "Ki", "setting": "rat SERT (rSERT)", "result": 4.9, "unit": "nM"},
      {"measurement": "fold decrease in rSERT binding affinity relative to paroxetine", "setting": "rat SERT (rSERT)", "result": 16, "unit": "fold"},
      {"measurement": "5-HT Transport Sensitivity toward the A169D mutation", "setting": "hSERT-A169D [2]; A169D versus WT", "result": 2.8},
      {"measurement": "Ki", "setting": "hSERT-A169D [2]; read-out: Ki (nM) 5-HT Transport A169D, hSERT A169D", "result": "6.37 ± 0.74", "unit": "nM"},
      {"measurement": "Ki", "setting": "hSERT WT [3]", "result": "1.07 ± 0.3", "unit": "nM"},
      {"measurement": "Ki", "setting": "hSERT WT [4]", "result": "2.3 ± 0.27", "unit": "nM"}
    ]},
    {"smiles": "CCCN1CCC(c2ccc(F)cc2)C(COc2ccc3c(c2)OCO3)C1", "note": "(centres unmarked) [compound 2]", "values": [
      {"measurement": "Ki", "setting": "rat SERT (rSERT)", "result": 98, "unit": "nM"}
    ]},
    {"smiles": "Fc1ccc(C2CCN(Cc3ccc(Br)cc3)CC2COc2ccc3c(c2)OCO3)cc1", "note": "(centres unmarked) [compound 3]", "values": [
      {"measurement": "Ki", "setting": "rat SERT (rSERT)", "result": 204, "unit": "nM"}
    ]},
    {"smiles": "CN1CC[C@@H](c2ccc(F)cc2)[C@H](COc2ccc3c(c2)OCO3)C1", "note": "[compound 14]", "values": [
      {"measurement": "Ki", "setting": "rat SERT (rSERT)", "result": 2.95, "unit": "nM"},
      {"measurement": "fold decrease in rSERT binding affinity relative to paroxetine", "setting": "rat SERT (rSERT)", "result": 9.5, "unit": "fold"}
    ]}
  ]
}
